Source: US7829575B2, “Methods for treating androgen receptor related disorders” (University of Cincinnati, priority 2006, dated 2010)

Assays:
LNCaP-Flut-R cells = test: Growth of Flut-refractory LNCaP cells, MTT; assay type: cell-based; details: 10 μM, 4 days, MTT (FIG. 2F)
Source text: (§1) Viable cells are stained with MTT (3-(4,5-dimethylthiazol-2-yl)-2,5-diphenyltetrazolium bromide). *, **, and *** designate p<0.05, <0.01, and 0.001, respectively, compared with controls.

LNCaP-Nilut-R cells = test: Growth of Nilut-refractory LNCaP cells, MTT; assay type: cell-based; details: 10 μM, 4 days, MTT (FIG. 2F)
Source text: as §1

LNCaP cells [1] = test: Cell cycle distribution and apoptosis, flow cytometry (propidium staining) and western blotting; assay type: cell-based
Method: To further appreciate the effects of DL3 on cell growth, cell cycle distribution is determined using the flow cytometry analysis. After incubation of LNCaP cells for 24 hr in SMEM, the majority of cells are in the G1 phase of cell cycle. […] The cell cycle distribution is examined by the propidium staining method. […] Thus, DL3 induces GI arrest of prostate cancer cells in short term culture.

22Rv1 cells [2] = test: Cellular PSA and AR protein, western blotting; assay type: cell-based; details: 24 hr
LNCaP cells [3] = test: PSA and AR mRNA expression, RT-PCR; assay type: cell-based; details: 24 hr
Method: (§2) In FIG. 7 LNCaP or 22Rv1 cells (A) are treated for 24 hr with DL3 and total RNA is extracted and analyzed by real-time RT-PCR. […] PSA mRNA in LNCaP cells is approximately 20 fold higher than that in 22Rv1 cells (FIG. 7A).

22Rv1 cells [4] = test: PSA mRNA expression, real-time RT-PCR; assay type: cell-based; details: CMEM, 24 hr, dose response (FIG. 7A)
Method: as §2

LNCaP cells [5] = test: Expression of AR-regulated genes, quantitative RT-PCR (Table 1); assay type: cell-based; details: DL3 20 μM for 24 hr
Method: To evaluate the specificity of the effects of DL3, expression of several other genes are determined by quantitative RT-PCR. […] In contrast, DL3 enhances expression of prostate-specific membrane antigen (PSMA), which is repressed by AR activation.

[6] = test system: LAPC-4, 22Rv1, PC-3, DU-145, PWE1-NB14, PWE1-NB26, PC-3AR cells; test: hsp70 expression in other prostate cancer cell lines, western blotting; assay type: cell-based
Method: Downregulation of hsp70 expression by DL3 is AR-dependent. Thus, the effects of DL3 on hsp70 expression are further investigated in several other prostate cancer cell lines, including LAPC-4 (wildtype AR), 22Rv1 (mutant AR), and AR-negative cell lines PC-3, DU-145, PWE1-NB14 (ATCC), and PWE1-NB26 (ATCC). […] In FIG. 10, LAPC-4 (in SMEM) and all other (in CMEM) cells are treated for 24 hr and analyzed by western blotting. LNCaP cells are transfected for 24 hr with hsp70 or its control vector, then treated for 24 hr. Thus, the above observation is further validated in PC-3 cells stably transfected with wildtype AR (PC-3AR). […] On the other hand, overexpression of hsp70 in LNCaP cells elevates endogenous AR protein levels (FIG. 10, panel C, right). […] Thus, the downregulation of hsp70 in prostate cancer cells by DL3 is in an AR-dependent event.

AR = AR nuclear localization, immunostaining; assay type: cell-based; details: PC-3AR and LNCaP cells, SMEM, 20 μM, with or without 1 nM DHT, 2 h
Source text: AR nuclear translocation is a necessary step for AR action. […] AR in the cells were stained with an antibody to AR and detected with Texas Red-labeled secondary antibody. […] AR is translocated to the nuclei upon treatment with DHT. […] Thus, DL3 binds to AR.

AR N/C interaction = biological target: T1, AR N/C interaction (Homo sapiens, UniProt P10275); test: AR N/C interaction, mammalian two-hybrid luciferase in HeLa cells; assay type: cell-based; details: 24 hr
T1 construct: the AR LBD and GAL4 DBD fusion protein (GAL4-LBD); expressed in transfected cells; host or cells: HeLa
T1 sequence (P10275 669-900 limits assumed): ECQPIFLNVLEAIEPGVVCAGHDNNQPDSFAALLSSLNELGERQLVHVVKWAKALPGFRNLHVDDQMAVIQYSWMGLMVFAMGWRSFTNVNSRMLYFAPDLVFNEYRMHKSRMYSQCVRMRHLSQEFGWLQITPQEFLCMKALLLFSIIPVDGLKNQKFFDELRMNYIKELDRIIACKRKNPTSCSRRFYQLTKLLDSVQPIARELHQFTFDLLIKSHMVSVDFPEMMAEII
Source text: This is done in a mammalian two-hybrid system, in which HeLa cells are cotransfected with vectors encoding the luciferase reporter driven by a tandem GAL4-responsive elements (GAL4-luc), the AR LBD and GAL4 DBD fusion protein (GAL4-LBD), and AR NTD and VP16 transactivation domain fusion protein (VP16-NTD).

LNCaP cells [7] = test: PSA and AR mRNA expression, RT-PCR; assay type: cell-based; details: 6 hr
LNCaP cells [8] = test: Expression of AR-regulated genes, quantitative RT-PCR (Table 1); assay type: cell-based; details: data not shown
LNCaP cells [9] = test: PSA gene transcription, real-time PCR-based nuclear run-on; details: 20 μM, 16 hr
human PSA gene promoter = test: PSA promoter luciferase reporter (pGL3-PSA-luc) in LNCaP cells; details: 24 hr
AR-AF1 (LBD deleted) = test: PSA promoter luciferase reporter in PC-3 cells co-transfected with AR-AF1; details: 20 μM, 24 hr
AR-AF2 (NTD deleted) = test: PSA promoter luciferase reporter in PC-3 cells co-transfected with AR-AF2; details: 20 μM, 24 hr

Structure (SMILES): CC(C)(C)c1ccc(OCCSc2nc(=O)cc(N)[nH]2)cc1 [DL3, 6-amino-2-(2-4-tert-butyl-phenoxy)-ethylsulfanyl-1H-pyrimidin-4-one]
- growth of LNCaP-Flut-R cells (LNCaP-Flut-R cells): significantly inhibits growth
- growth of LNCaP-Nilut-R cells (LNCaP-Nilut-R cells): significantly inhibits growth
- increase of the portion of cells in G1 phase of cell cycle (LNCaP cells [1]; 24 hr, regardless of presence or absence of DHT): 15%
- induction of apoptosis (LNCaP cells [1]; 24 hr, DL3 at 20 μM): does not induce apoptosis
- survivin expression and caspase 3 cleavage (western blotting) (LNCaP cells [1]; data not shown): alter neither survivin expression nor caspase 3 cleavage
- expression of AR protein (22Rv1 cells [2]; 5 and 10 μM): not significantly altered
- expression of AR protein (22Rv1 cells [2]; 20 and 40 μM): reduced
- PSA protein expression (22Rv1 cells [2]; CMEM, increasing concentrations): inhibitory effects
- DHT-stimulated PSA mRNA expression (LNCaP cells [3]; 20 μM, 1 nM DHT): abolishes
- basal level of PSA mRNA (LNCaP cells [3]; 20 μM, androgen-starved): significantly reduces
- expression of AR mRNA (LNCaP cells [3]; 1 nM DHT, 20 μM DL3 or Bical): partially downregulated
- expression of PSA mRNA (LNCaP cells [3]; CMEM, dose response (FIG. 7A)): inhibits the expression of PSA mRNA
- expression of PSA mRNA (22Rv1 cells [4]): inhibits the expression of PSA mRNA
- IL-8 expression DL3/CTR (%) (LNCaP cells [5]): 107%
- IL-8 expression level relative to β-actin (LNCaP cells [5]): 8.59e−04
- PSA expression DL3/CTR (%) (LNCaP cells [5]): 3%
- PSA expression level relative to β-actin (LNCaP cells [5]): 3.03e−02
- PSCA expression DL3/CTR (%) (LNCaP cells [5]): 55%
- PSCA expression level relative to β-actin (LNCaP cells [5]): 1.90e−04
- PSMA expression DL3/CTR (%) (LNCaP cells [5]): 379%
- PSMA expression level relative to β-actin (LNCaP cells [5]): 1.35e−01
- hK2 expression DL3/CTR (%) (LNCaP cells [5]): 18%
- hK2 expression level relative to β-actin (LNCaP cells [5]): 4.05e−03
- downregulation of hsp70 expression across AR-positive and AR-negative cell lines ([6]; LAPC-4, 22Rv1 vs AR-negative PC-3, DU-145, PWE1-NB14, PWE1-NB26, 24 hr): found in only the cells expressing AR
- hsp70 expression in PC-3AR cells ([6]; PC-3 stably transfected with wildtype AR): downregulates hsp70 expression
- nuclear localization of AR (AR): partially induce and enhance DHT-induced nuclear localization of AR
- DHT-induced N/C interaction (AR N/C interaction; 1 nM DHT, different concentrations): not significantly altered
- luciferase activity (N/C interaction), compound alone (AR N/C interaction; no DHT): not significantly altered
- AR mRNA expression (LNCaP cells [7]): not significantly altered
- PSMA expression at the protein level (LNCaP cells [8]): Enhancement of PSMA expression
- DHT-induced PSA mRNA transcription activity of nuclear extracts (LNCaP cells [9]; 1 nM DHT): significantly reduced
- basal PSA mRNA transcription activity of nuclear extracts (LNCaP cells [9]): significantly reduced
- basal PSA promoter activity (human PSA gene promoter; 20 μM alone): does not significantly alter
- PSA promoter activity induced by DHT (human PSA gene promoter; 20 μM, 1 nM DHT): attenuates
- activation of PSA promoter activity by AR-AF1 (AR-AF1 (LBD deleted)): does not inhibit
- activation of PSA promoter activity by AR-AF2 (AR-AF2 (NTD deleted)): does not inhibit
